Results published in patent US20230330122A1, “PHARMACOLOGICAL TREATMENT OF AUTISM SPECTRUM DISORDER” (priority 2022, published 2023).

Legend:
[1] = test system: SHANK3 autism mouse model; assay: Compulsive behavior in SHANK3 autism mouse model; type: in vivo
Excerpt: FIGS. 5 and 6 present data collected by experiments using a SH3 And Multiple Ankyrin Repeat Domains 3 (SHANK3) autism mouse model. SHANK3 was the first to be associated with autism which was used by Joao Peca et al. (2011) to create the mouse model currently in use. […] The SHANK family of proteins has been strongly implicated as a contributing factor in autism in certain individuals and sits at the core of the alleged autistic pathway. The SHANK proteins lie at the heart of this synaptic map of autistic pathology, binding to Metabotropic Glutamate Receptors (mGluRs) indirectly, via the Homer family of adaptor proteins, and to both N-methyl-D-aspartate receptors (NMDARS) and Neuroligins (NLGNs) indirectly, via guanylate kinase-associated protein (GKAP) and Postsynaptic density protein 95 (PSD-95). They also link to the actin cytoskeleton, providing a multivalent scaffold upon which to build the postsynaptic density.
Compulsive behavior was used as a readout to evaluate the effectiveness of autistic symptom amelioration through NMN treatment. […] A baseline was recorded for both groups. The effect of a placebo was evaluated for both groups. NMN was administered to subjects of each group and the results were recorded. The results of treatment with NMN over 1 week were also recorded.

OCD mouse models = details: 3 different mouse models; cited from earlier work

For `NC(=O)c1ccc[n+]([C@@H]2O[C@H](COP(=O)([O-])O)[C@@H](O)[C@H]2O)c1` [NMN, nicotinamide mononucleotide], the “compulsive behavior in seconds observed over a 5-minute period” value ([1]; SHANK3 autistic group and control group, NMN administered, also NMN over 1 week, FIG. 5) was “significantly reducing the exhibition of compulsive behavior” and the safety of treatment ([1]; SHANK3 mouse model, NMN treatment) was “SAFE”.
In the case of `O=C(O)C(Cc1c[nH]c2ccccc12)N1C(=O)c2ccccc2C1=O` (stereo not drawn) [RG108], the “treating OCD” value (OCD mouse models) is given as “successful in treating OCD”.
